In patent US8017612B2, “Piperazine compound and use thereof as a HCV polymerase inhibitor” (priority 2006, dated 2011):

How the values were obtained:
[1] = biological target: T1, HCV polymerase (NS5B) type 1a (Hepatitis C virus genotype 1a, UniProt P26664); assay: Assay of enzyme (HCV polymerase) inhibitory activity, type 1a enzyme; type: biochemical, HCV type 1a (cloned from the blood of patients)
T1 construct: made in house; host or cells: Escherichia coli (by the 'similar method' of the 1b enzyme)
Procedure, shortened: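 His-tagged NS5B, C-terminal 47 residues deleted, type 1a at 1.5 μg/ml, with 5 μg/ml HCV 3′UTR substrate RNA, 50 μM ATP/GTP/CTP, 2 μM UTP plus [3H]UTP, pH 7.5 Tris, 5 mM MgCl2; 60 min at 25° C. TCA-precipitated RNA counted by scintillation; IC50 from radioactivity with vs. without compound.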

[2] = biological target: T2, HCV polymerase (NS5B) type 1b (Hepatitis C virus genotype 1b, UniProt P26663); assay: Assay of enzyme (HCV polymerase) inhibitory activity, type 1b enzyme; type: biochemical, HCV BK strain (type 1b)
T2 construct: a region encoding NS5B (J Virol 1991 March, 65(3), 1105-13, 544 amino acids after deletion of 47 amino acids on the C-terminal); 6xHis (C); made in house; host or cells: Escherichia coli
Procedure, shortened: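 His-tagged, C-terminally truncated NS5B (BK strain, 1b; 0.5 μg/ml) incubated with compound 60 min at 25 °C on 3′UTR-derived substrate RNA (5 μg/ml), 50 μM ATP/GTP/CTP, 2 μM UTP plus [3H]UTP, pH 7.5. Acid-precipitated RNA counted; IC50 from radioactivity with and without compound.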

[3] = HCV polymerase inhibitory activity IC50, 1a, type 1a enzyme
[4] = HCV polymerase inhibitory activity IC50, 1b, type 1b enzyme
[5] = HCV polymerase inhibitory activity (IC50), 1a, type 1a enzyme 1.5 μg/ml, 25° C., 60 min
[6] = HCV polymerase inhibitory activity (IC50), 1b, type 1b enzyme 0.5 μg/ml, 25° C., 60 min

Row | SMILES | IC50 [1, 3] | IC50 [2, 4] | IC50 [1, 5] | IC50 [2, 6]
1 | O=C(NCc1ccc(OC(F)(F)F)cc1)[C@H]1CN(c2nc3nc(Cl)nc(Cl)c3s2)CCN1S(=O)(=O)c1ccc(OC(F)(F)F)cc1 [Example 800, (R)-4-(5,7-dichloro-thiazolo[4,5-d]pyrimidin-2-yl)-1-(4-trifluoromethoxy-benzenesulfonyl)-piperazine-2-carboxylic acid 4-trifluoromethoxy-benzylamide] | < 100 nM | < 100 nM |  | 
2 | CCC(F)(F)c1ccc(CNC(=O)[C@H]2CN(c3cnc4cnccc4n3)CCN2S(=O)(=O)c2ccc(C(F)(F)F)cc2)cc1 [Example 735, (R)-4-pyrido[3,4-b]pyrazin-2-yl-1-(4-trifluoromethyl-benzenesulfonyl)-piperazine-2-carboxylic acid 4-(1,1-difluoro-propyl)-benzylamide] | < 100 nM | < 100 nM |  | 
3 | CNc1ncc2sc(N3CCN(S(=O)(=O)c4ccc(OC(F)(F)F)cc4)[C@@H](C(=O)NCc4ccc(OC(F)(F)F)cc4)C3)nc2n1 [Example 952, (R)-4-(5-methylamino-thiazolo[4,5-d]pyrimidin-2-yl)-1-(4-trifluoromethoxy-benzenesulfonyl)-piperazine-2-carboxylic acid 4-trifluoromethoxy-benzylamide] | < 100 nM | < 100 nM |  | 
4 | CN(C)c1ccc(CNC(=O)C2CN(C(=O)CC3CCCCC3)CCN2S(=O)(=O)c2ccc(I)cc2)cc1 (centres unmarked) [Example 122, 4-(2-cyclohexyl-acetyl)-1-(4-iodo-benzenesulfonyl)-piperazine-2-carboxylic acid 4-dimethylamino-benzylamide] |  |  | > 1000 nM | > 1000 nM
5 | CCCN(CCC)CCC(=O)N1CCN(S(=O)(=O)c2ccc(I)cc2)C(C(=O)NCc2ccc(N(C)C)cc2)C1 (centres unmarked) [Example 114, 4-(3-dipropylamino-propionyl)-1-(4-iodo-benzenesulfonyl)-piperazine-2-carboxylic acid 4-dimethylamino-benzylamide] |  |  | > 1000 nM | > 1000 nM
6 | CC(=O)N1CCN(S(=O)(=O)c2ccc(C(C)C)cc2)C(C(=O)NCc2ccccc2C(F)(F)F)C1 (centres unmarked) [Example 120, 4-acetyl-1-(4-isopropyl-benzenesulfonyl)-piperazine-2-carboxylic acid 2-trifluoromethyl-benzylamide] |  |  | > 1000 nM | > 1000 nM
7 | CC(=O)N1CCN(S(=O)(=O)c2ccc(OC(F)(F)F)cc2)[C@@H](C(=O)NCC2(O)CCCCC2)C1 [Example 621, (R)-4-acetyl-1-(4-trifluoromethoxy-benzenesulfonyl)-piperazine-2-carboxylic acid (1-hydroxy-cyclohexylmethyl)-amide] |  |  | > 1000 nM | > 1000 nM
8 | CCC(F)(F)c1ccc(CNC(=O)[C@H]2CN(C(=O)Nc3nnc(C(C)(C)O)s3)CCN2S(=O)(=O)c2ccc(OC(F)(F)F)cc2)cc1 [Example 484, (R)-4-(4-trifluoromethoxy-benzenesulfonyl)-piperazine-1,3-dicarboxylic acid 3-[4-(1,1-difluoro-propyl)-benzylamide] 1-{[5-(1-hydroxy-1-methyl-ethyl)-[1,3,4]thiadiazol-2-yl]-amide}] |  |  | 100 to 1000 nM | < 100 nM
9 | CCC(F)(F)c1ccc(CNC(=O)[C@H]2CN(C(=O)CNc3ccn(C)n3)CCN2S(=O)(=O)c2ccc(OC(F)(F)F)cc2)cc1 [Example 734, (R)-4-[2-(1-methyl-1H-pyrazol-3-ylamino)-acetyl]-1-(4-trifluoromethoxy-benzenesulfonyl)-piperazine-2-carboxylic acid 4-(1,1-difluoro-propyl)-benzylamide] | 100 to 1000 nM | 100 to 1000 nM |  | 
10 | CCOC(=O)COc1cccc(NC(=O)N2CCN(S(=O)(=O)c3ccc(C(F)(F)F)cc3)[C@@H](C(=O)NCc3ccc(C(C)C)cc3)C2)c1 [Example 256, (3-{[(R)-3-(4-isopropyl-benzylcarbamoyl)-4-(4-trifluoromethyl-benzenesulfonyl)-piperazine-1-carbonyl]-amino}-phenoxy)-acetic acid ethyl ester] |  |  | 100 to 1000 nM | 100 to 1000 nM
11 | CC(C)c1ccc(CNC(=O)[C@H]2CN(C3CC(=O)NC3=O)CCN2S(=O)(=O)c2ccc(C(F)(F)F)cc2)cc1 (stereo partly drawn) [Example 147, (R)-4-(2,5-dioxo-pyrrolidin-3-yl)-1-(4-trifluoromethyl-benzenesulfonyl)-piperazine-2-carboxylic acid 4-isopropyl-benzylamide] |  |  | > 1000 nM | 100 to 1000 nM
12 | CCC(=O)N1CCN(S(=O)(=O)c2ccc(I)cc2)C(C(=O)NCc2ccc(N(C)C)cc2)C1 (centres unmarked) [Example 130, 1-(4-iodo-benzenesulfonyl)-4-propionyl-piperazine-2-carboxylic acid 4-dimethylamino-benzylamide] |  |  | > 1000 nM | > 1000 nM
13 | COc1cccc(CCNC(=O)[C@H]2CN(C(C)=O)CCN2S(=O)(=O)c2ccc(OC(F)(F)F)cc2)c1 [Example 672, (R)-4-acetyl-1-(4-trifluoromethoxy-benzenesulfonyl)-piperazine-2-carboxylic acid [2-(3-methoxy-phenyl)-ethyl]-amide] | > 1000 nM | > 1000 nM |  | 
14 | COC(=O)c1ccc(NC(=O)N2CCN(S(=O)(=O)c3ccc(C(F)(F)F)cc3)[C@@H](C(=O)NCc3ccc(C(C)C)cc3)C2)cc1 [Example 276, 4-{[(R)-3-(4-isopropyl-benzylcarbamoyl)-4-(4-trifluoromethyl-benzenesulfonyl)-piperazine-1-carbonyl]-amino}-benzoic acid methyl ester] |  |  | 100 to 1000 nM | 100 to 1000 nM
15 | CCC(F)(F)c1ccc(CNC(=O)[C@H]2CN(C(=O)c3cc(C)on3)CCN2S(=O)(=O)c2ccc(OC(F)(F)F)cc2)cc1 [Example 521, (R)-4-(5-methyl-isoxazole-3-carbonyl)-1-(4-trifluoromethoxy-benzenesulfonyl)-piperazine-2-carboxylic acid 4-(1,1-difluoro-propyl)-benzylamide] |  |  | > 1000 nM | 100 to 1000 nM
16 | O=C(NCc1ccc(OC(F)(F)F)cc1)[C@H]1CN(c2cnc3cncnc3n2)CCN1S(=O)(=O)c1ccc(Br)s1 [Example 789, (R)-1-(5-bromo-thiophene-2-sulfonyl)-4-pteridin-7-yl-piperazine-2-carboxylic acid 4-trifluoromethoxy-benzylamide] | < 100 nM | < 100 nM |  | 
17 | CCC(F)(F)c1ccc(CNC(=O)[C@H]2CN(C(=O)Nc3ccnc(C(=O)NC4CC4)c3)CCN2S(=O)(=O)c2ccc(OC(F)(F)F)cc2)cc1 [Example 512, (R)-4-(4-trifluoromethoxy-benzenesulfonyl)-piperazine-1,3-dicarboxylic acid 1-[(2-cyclopropylcarbamoyl-pyridin-4-yl)-amide] 3-[4-(1,1-difluoro-propyl)-benzylamide]] |  |  | < 100 nM | < 100 nM
18 | CC(=O)N1CCN(S(=O)(=O)c2ccc(C(C)C)cc2)C(C(=O)NCc2ccc(C(F)(F)F)cc2)C1 (centres unmarked) [Example 1115, 4-acetyl-1-(4-isopropyl-benzenesulfonyl)-piperazine-2-carboxylic acid 4-trifluoromethyl-benzylamide] | 100 to 1000 nM | > 1000 nM |  | 
19 | CC(C)c1ccc(S(=O)(=O)N2CCN(C(=O)Cc3ccccc3)CC2C(=O)NCc2ccc(C(F)(F)F)cc2)cc1 (centres unmarked) [Example 124, 1-(4-isopropyl-benzenesulfonyl)-4-phenylacetyl-piperazine-2-carboxylic acid 4-trifluoromethyl-benzylamide] |  |  | > 1000 nM | > 1000 nM
